Results from patent US10870647B2, “Imidazopyridine derivative, method for preparing same, and pharmaceutical composition containing same as active ingredient for preventing or treating cancer” (DAEGU-GYEONGBUK MEDICAL INNOVATION FOUNDATION, priority 2016, dated 2020).
Read-outs that look alike come from different tables or passages of the source.

Columns and labels:
Test in all cases: Kinase selectivity, scanMAX Kinase assay panel (DiscoverX), % control at 1 uM
Format in all cases: binding
[1] = molecular target: T1, scanMAX Kinase assay panel (Homo sapiens, UniProt O15264); settings: p38-delta; 1 uM; read-out: Percent Control (%)
T1 construct: purchased DiscoverX
T1 sequence (O15264 1-365): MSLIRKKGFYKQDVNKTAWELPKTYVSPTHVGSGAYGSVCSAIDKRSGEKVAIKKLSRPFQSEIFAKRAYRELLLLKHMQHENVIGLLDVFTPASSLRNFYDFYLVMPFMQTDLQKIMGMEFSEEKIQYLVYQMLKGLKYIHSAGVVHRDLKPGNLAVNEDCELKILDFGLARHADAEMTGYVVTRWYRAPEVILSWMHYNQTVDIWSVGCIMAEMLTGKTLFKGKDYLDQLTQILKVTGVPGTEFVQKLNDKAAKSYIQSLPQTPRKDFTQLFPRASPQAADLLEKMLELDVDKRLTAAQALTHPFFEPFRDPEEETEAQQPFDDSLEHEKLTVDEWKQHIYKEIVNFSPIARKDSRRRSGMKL
Method in brief: (§1)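 1 uM cpd (DMSO) per kinase; % ctrl = [cpd − pos ctrl]/[neg ctrl − pos ctrl] × 100; hit if <35.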

[2] = molecular target: T2, scanMAX Kinase assay panel (Homo sapiens, UniProt P53350); settings: PLK1; 1 uM; read-out: Percent Control (%)
T2 construct: purchased DiscoverX
T2 sequence (P53350 whole entry): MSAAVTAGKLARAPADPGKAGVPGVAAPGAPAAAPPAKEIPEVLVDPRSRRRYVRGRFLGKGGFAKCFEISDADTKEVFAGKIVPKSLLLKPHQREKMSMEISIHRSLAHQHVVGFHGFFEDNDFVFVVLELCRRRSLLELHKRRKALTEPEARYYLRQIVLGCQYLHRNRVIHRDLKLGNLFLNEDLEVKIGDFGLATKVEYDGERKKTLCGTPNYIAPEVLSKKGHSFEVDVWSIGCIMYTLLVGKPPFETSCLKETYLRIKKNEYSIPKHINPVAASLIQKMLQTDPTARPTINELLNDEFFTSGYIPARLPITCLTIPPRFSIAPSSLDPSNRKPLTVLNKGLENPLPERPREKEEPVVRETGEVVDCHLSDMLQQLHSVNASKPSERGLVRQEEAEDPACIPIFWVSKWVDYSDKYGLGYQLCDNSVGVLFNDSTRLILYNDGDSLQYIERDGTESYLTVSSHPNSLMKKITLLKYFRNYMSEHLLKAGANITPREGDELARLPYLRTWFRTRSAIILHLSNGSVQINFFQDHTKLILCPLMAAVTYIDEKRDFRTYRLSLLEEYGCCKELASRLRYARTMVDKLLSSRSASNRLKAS
Method in brief: as §1

[3] = molecular target: T3, scanMAX Kinase assay panel (Homo sapiens, UniProt Q99640); settings: PKMYT1; 1 uM; read-out: Percent Control (%)
T3 construct: purchased DiscoverX
T3 sequence (Q99640 1-499): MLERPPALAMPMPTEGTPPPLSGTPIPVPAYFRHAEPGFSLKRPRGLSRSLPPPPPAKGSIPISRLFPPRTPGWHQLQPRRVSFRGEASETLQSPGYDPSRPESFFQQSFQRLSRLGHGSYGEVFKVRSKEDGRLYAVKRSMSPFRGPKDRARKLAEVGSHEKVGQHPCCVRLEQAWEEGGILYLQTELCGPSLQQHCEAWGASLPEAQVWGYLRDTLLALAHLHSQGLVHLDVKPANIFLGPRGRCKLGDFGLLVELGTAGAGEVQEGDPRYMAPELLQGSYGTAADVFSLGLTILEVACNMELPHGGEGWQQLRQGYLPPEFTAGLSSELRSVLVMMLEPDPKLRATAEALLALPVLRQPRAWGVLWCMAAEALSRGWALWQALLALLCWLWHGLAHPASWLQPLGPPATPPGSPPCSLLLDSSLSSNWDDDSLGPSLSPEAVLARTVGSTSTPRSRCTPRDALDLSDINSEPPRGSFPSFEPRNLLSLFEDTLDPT
Method in brief: as §1

[4] = molecular target: T4, scanMAX Kinase assay panel (Homo sapiens, UniProt Q9UKI8); settings: TLK1; 1 uM; read-out: Percent Control (%)
T4 construct: purchased DiscoverX
T4 sequence (Q9UKI8 1-766): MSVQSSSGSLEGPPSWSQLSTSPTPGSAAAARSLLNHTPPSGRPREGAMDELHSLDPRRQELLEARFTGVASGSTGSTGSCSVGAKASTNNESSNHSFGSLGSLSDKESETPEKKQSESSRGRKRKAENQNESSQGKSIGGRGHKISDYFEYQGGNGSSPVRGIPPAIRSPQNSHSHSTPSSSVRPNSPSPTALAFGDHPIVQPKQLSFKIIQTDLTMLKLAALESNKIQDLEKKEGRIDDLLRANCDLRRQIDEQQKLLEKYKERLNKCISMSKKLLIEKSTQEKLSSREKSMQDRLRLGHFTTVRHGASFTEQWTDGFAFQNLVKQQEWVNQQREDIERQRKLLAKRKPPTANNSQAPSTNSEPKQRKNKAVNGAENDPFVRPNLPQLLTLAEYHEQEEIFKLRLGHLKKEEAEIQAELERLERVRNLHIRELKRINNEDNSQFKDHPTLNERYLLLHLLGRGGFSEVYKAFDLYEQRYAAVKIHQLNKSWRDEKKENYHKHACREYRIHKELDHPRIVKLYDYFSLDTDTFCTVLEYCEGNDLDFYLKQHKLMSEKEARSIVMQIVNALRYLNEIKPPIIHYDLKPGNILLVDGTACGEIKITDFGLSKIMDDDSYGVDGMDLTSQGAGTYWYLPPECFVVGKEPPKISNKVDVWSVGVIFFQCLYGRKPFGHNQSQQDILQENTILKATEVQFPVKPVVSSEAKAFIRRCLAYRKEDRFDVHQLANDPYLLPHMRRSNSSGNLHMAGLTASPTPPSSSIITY
Method in brief: as §1

[5] = molecular target: T5, scanMAX Kinase assay panel (Homo sapiens, UniProt Q8TD08); settings: ERK8; 1 uM; read-out: Percent Control (%)
T5 construct: purchased DiscoverX
T5 sequence (Q8TD08 1-544): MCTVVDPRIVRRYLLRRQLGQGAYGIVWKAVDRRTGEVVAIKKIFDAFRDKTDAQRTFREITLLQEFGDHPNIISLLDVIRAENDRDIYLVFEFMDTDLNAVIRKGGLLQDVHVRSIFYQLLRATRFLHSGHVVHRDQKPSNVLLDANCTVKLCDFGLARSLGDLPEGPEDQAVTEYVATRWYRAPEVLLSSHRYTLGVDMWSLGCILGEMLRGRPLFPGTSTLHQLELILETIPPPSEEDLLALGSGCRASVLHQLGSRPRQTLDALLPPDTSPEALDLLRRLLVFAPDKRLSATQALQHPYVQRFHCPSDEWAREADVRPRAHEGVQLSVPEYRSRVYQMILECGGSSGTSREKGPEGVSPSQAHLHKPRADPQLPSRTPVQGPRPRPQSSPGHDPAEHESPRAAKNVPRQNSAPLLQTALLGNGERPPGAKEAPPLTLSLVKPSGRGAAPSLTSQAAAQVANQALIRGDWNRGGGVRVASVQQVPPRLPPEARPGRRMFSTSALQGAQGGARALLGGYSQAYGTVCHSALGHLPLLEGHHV
Method in brief: as §1

[6] = molecular target: T6, scanMAX Kinase assay panel (Homo sapiens, UniProt P00519); settings: 1 uM, read-out: Percent Control (%)
T6 construct: purchased DiscoverX
T6 sequence (P00519 whole entry): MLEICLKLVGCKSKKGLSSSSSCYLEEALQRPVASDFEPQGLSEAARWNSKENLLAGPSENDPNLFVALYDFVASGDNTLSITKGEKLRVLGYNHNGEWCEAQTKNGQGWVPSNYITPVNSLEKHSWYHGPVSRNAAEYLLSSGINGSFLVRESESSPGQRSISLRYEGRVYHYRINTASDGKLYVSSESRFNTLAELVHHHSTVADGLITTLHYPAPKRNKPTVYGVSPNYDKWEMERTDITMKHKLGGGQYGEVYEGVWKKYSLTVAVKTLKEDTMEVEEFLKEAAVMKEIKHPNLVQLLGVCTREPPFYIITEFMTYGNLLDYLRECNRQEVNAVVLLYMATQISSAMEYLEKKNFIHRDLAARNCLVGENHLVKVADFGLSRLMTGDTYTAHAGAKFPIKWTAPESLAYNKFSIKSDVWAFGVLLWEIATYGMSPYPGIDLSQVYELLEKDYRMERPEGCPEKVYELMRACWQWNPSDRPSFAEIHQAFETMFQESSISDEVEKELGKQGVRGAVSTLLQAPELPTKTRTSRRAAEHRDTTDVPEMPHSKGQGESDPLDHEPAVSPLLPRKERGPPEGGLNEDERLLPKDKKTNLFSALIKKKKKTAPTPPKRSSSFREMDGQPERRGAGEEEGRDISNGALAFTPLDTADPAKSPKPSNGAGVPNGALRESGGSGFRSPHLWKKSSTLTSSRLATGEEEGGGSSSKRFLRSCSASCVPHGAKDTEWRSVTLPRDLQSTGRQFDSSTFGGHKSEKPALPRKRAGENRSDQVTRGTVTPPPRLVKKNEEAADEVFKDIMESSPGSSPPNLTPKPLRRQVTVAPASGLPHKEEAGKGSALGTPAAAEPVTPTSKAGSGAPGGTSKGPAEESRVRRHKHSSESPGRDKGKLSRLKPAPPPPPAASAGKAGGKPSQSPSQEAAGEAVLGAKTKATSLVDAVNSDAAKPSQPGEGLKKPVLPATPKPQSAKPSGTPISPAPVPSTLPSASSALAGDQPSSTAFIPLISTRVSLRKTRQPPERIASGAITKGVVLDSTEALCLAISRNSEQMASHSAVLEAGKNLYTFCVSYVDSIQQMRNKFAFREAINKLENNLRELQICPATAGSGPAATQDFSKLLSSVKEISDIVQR
Method in brief: as §1

[7] = molecular target: T7, scanMAX Kinase assay panel (Homo sapiens, UniProt Q15569); settings: TESK1; 1 uM; read-out: Percent Control (%)
T7 construct: purchased DiscoverX
T7 sequence (Q15569 whole entry): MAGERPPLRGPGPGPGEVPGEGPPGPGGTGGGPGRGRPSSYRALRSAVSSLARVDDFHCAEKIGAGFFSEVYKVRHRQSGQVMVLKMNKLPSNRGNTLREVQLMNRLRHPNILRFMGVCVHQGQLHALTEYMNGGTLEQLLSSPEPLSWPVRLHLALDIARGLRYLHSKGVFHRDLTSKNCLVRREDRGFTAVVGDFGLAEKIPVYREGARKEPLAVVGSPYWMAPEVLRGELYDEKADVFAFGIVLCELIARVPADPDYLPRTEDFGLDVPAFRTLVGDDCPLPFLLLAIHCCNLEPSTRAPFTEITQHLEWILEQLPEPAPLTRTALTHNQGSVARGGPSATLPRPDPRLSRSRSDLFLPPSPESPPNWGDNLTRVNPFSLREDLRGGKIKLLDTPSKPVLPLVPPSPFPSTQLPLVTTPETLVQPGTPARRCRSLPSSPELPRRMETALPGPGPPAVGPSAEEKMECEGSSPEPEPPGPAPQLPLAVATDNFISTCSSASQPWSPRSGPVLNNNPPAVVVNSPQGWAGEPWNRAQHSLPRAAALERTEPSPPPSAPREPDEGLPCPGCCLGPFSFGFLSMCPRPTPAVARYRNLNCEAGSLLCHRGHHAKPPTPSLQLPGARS
Method in brief: as §1

[8] = molecular target: T8, scanMAX Kinase assay panel (Homo sapiens, UniProt Q9NSY1); settings: BIKE; 1 uM; read-out: Percent Control (%)
T8 construct: purchased DiscoverX
T8 sequence (Q9NSY1 whole entry): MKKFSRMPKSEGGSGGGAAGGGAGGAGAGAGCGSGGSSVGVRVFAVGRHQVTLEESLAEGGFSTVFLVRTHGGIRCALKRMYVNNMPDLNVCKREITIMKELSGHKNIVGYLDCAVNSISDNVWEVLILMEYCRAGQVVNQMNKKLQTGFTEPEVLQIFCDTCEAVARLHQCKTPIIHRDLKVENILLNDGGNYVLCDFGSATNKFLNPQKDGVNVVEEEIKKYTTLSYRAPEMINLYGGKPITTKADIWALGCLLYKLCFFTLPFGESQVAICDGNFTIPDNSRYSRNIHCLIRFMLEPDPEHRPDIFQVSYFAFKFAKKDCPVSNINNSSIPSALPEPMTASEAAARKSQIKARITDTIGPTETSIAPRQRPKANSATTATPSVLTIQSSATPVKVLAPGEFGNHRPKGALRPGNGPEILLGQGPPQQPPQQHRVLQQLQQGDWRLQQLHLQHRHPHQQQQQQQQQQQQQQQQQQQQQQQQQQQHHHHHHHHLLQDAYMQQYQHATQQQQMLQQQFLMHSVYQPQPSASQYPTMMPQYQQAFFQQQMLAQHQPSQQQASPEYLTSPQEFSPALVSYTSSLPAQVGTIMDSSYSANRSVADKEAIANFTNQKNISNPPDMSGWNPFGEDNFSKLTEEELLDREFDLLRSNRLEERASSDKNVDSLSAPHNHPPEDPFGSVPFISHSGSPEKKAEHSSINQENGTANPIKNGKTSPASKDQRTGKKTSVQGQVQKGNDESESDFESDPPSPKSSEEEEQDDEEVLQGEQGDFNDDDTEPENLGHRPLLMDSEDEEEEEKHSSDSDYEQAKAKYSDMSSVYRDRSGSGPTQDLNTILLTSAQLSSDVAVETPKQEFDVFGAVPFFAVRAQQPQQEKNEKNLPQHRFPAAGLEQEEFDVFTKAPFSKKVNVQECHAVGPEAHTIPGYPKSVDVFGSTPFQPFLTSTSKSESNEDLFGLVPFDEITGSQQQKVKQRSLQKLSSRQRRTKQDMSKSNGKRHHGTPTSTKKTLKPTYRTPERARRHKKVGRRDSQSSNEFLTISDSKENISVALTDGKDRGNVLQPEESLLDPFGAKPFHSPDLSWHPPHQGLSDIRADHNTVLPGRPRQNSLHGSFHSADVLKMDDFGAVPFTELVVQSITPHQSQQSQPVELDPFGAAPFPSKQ
Method in brief: as §1

Cc1ccc(C(=O)Nc2ccc(CN3CCN(C)CC3)c(C(F)(F)F)c2)cc1C#Cc1cnc2c(Nc3cnn(C)c3)cccn12 [Example 1, 4-methyl-3-((8-((1-methyl-1H-pyrazol-4-yl)amino)imidazo[1,2-a]pyridin-3-yl)ethynyl)-N-(4-((4-methylpiperazin-1-yl)methyl)-3-(trifluoromethyl)phenyl)benzamide] was tested, and the remaining binding at 1 µM [1] was 16%, the remaining binding at 1 µM [2] was 77% and the remaining binding at 1 µM [3] was 93%. The remaining binding at 1 µM [4] was 93%, the remaining binding at 1 µM [5] was 29% and the remaining binding at 1 µM ([6]; ABL1-nonphosphorylated) was 1%. For the same molecule, the remaining binding at 1 µM ([6]; ABL1-phosphorylated) was 0%, the remaining binding at 1 µM [7] was 26% and the remaining binding at 1 µM [8] was 81%.

With Cc1cn(-c2cc(NC(=O)c3ccc(C)c(C#Cc4cnc5c(Nc6cnn(C)c6)cccn45)c3)cc(C(F)(F)F)c2)cn1 [Example 12, 4-methyl-N-(3-(4-methyl-1H-imidazol-1-yl)-5-(trifluoromethyl)phenyl)-3-((8-((1-methyl-1H-pyrazol-4-yl)amino)imidazo[1,2-a]pyridin-3-yl)ethynyl)benzamide] the remaining binding at 1 µM [1] was 78%, the remaining binding at 1 µM [2] was 100% and the remaining binding at 1 µM [3] was 98%. For the same molecule, the remaining binding at 1 µM [4] was 75%, the remaining binding at 1 µM [5] was 71% and the remaining binding at 1 µM ([6]; ABL1-nonphosphorylated) was 1%. It also gave a remaining binding at 1 µM ([6]; ABL1-phosphorylated) of 6%, a remaining binding at 1 µM [7] of 81% and a remaining binding at 1 µM [8] of 85%.

With Cc1ccc(NC(=O)C2(C(=O)Nc3ccc(F)cc3)CC2)cc1C#Cc1cnc2c(Nc3cnn(C(C)C)c3)cccn12 [Example 78] the remaining binding at 1 µM [1] was 100%, the remaining binding at 1 µM [2] was 100% and the remaining binding at 1 µM [3] was 90%. It also gave a remaining binding at 1 µM [4] of 96%, a remaining binding at 1 µM [5] of 87% and a remaining binding at 1 µM ([6]; ABL1-nonphosphorylated) of 4%. It also gave a remaining binding at 1 µM ([6]; ABL1-phosphorylated) of 56%, a remaining binding at 1 µM [7] of 100% and a remaining binding at 1 µM [8] of 100%.
